We go through five compounds from patent publication US9855225B2, “Cannabinoid receptor treatments” (TEMPLE UNIVERSITY OFFICE OF TECHNOLOGY TRANSFER, priority 2011, dated 2018).

“And” between values parts separate entries of the source, which are not always exact repeats. Equal values may be shown once. Read-outs that look alike come from different tables or passages of the source.

The test system of one data set is mouse splenocytes. The conditions noted are these: primary and secondary in vitro assays; earlier work of the inventors; cited from earlier work.
The test system of data set [1] is C57BL/6 responder splenocytes from WT mice. The data set is described as follows: One-way mixed lymphocyte reaction (MLR), [3H]-thymidine incorporation, wild-type responder splenocytes. The conditions noted are these: for Inhibition of the MLR: WT splenocytes, agonist 16 and 32 μM, 3 h. It is filed as cell-based, mouse. As for the experimental part: The MLR assay is a common method used to evaluate the cellular immune responses from two different individuals or animals and is considered to be an in vitro correlate of skin and organ transplant rejection. Lymphocytes from two different populations can be incubated together in which the T cells recognize the foreign cells from the other strain, become activated, proliferate and take up tritiated thymidine ([^3H]-thymidine). Results from this assay (Examples 1, 2 and 4) are expressed as a Suppression Index (SI), where untreated spleen cells are given a value of 1.00 (100%), and responses of cultures receiving treatment with cannabinoids are calculated as: […]
All SI data were transformed to normalized ranks to accommodate non-normality of the data. ANOVA was used to test for significant differences between groups.
The aim of the next series of experiments was to test the hypothesis that suppression of proliferation in the MLR is a CB2 receptor-mediated function.
On the technique in general: Incorporation of labelled thymidine or its analogues reports DNA synthesis.

Data set [2] can be described thus: Spleen weight of treated skin graft recipient mice. In kind it is in vivo, mouse. The note with it: Day 14, 5 mg/kg every other day. From the text: Spleens were removed on Day 14 and weighed. Spleens from vehicle treated mice were 0.093+/−0.01 grams and spleens from O-1966 mice were 0.077+/−0.006 grams. Spleens of untreated mice average 0.072+/−0.009 grams (historical data). The average spleen weight index ([spleen weight/body weight]×100) was 0.46% in vehicle treated mice and 0.38% in O-1966 treated mice.

The test system of data set [3] is C57Bl/6 mice with skin grafts from C3HeB/FeJ mice. The data set is described as follows: Skin graft rejection in mice. In kind it is in vivo, mouse. The note with it: 5 mg/kg intraperitoneal every other day for 14 days. The procedure: Groups of C57Bl/6 mice received skin grafts from C3HeB/FeJ mice that are histoincompatible (FIG. 11). Starting one hour before grafting mice were treated by intraperitoneal injection with either 5 mg/kg of the CB2 receptor agonist, O-1966, or vehicle. (Volumes were based on weight. but were usually approximately 0.2 ml.) every other day for 14 days, and monitored for graft rejection. Mice that received O-1966 treatment had viable grafts 2.7 days longer than vehicle treated mice, which was statistically significant.

Data set [4] has as its system splenocytes from skin graft recipient mice. The data set is described as follows: Ex vivo MLR of splenocytes from treated skin graft recipient mice. The note with it: 5 mg/kg every other day 14 days; spleens day 14; 48 hr in culture. Details: species or system mouse. As for the experimental part:
Splenocytes from O-1966 treated skin graft recipient mice have decreased proliferation in an ex vivo MLR. (FIG. 12). Groups of mice received skin grafts and were treated with either 5 mg/kg O-1966 or vehicle every other day for 14 days. Spleens were removed on day 14 and placed in an MLR assay. The cells were restimulated in vitro with splenocytes from an incompatible mouse strain, but they received no additional treatment with a cannabinoid in vitro.

Data set [5] concerns CD3+ cells (T cells) and CD11b+ cells. It is filed as cell-based, mouse. The note with it: 1-32 μM, 3 hours, fractions added back.
The test system of the next data set is CD3+ T-cell population. In words: mRNA expression (microarray/qPCR) in CD3+ T-cells from the MLR. The conditions noted are these: 32 μM/ml, 18 hours, vs vehicle. In kind it is cell-based, mouse. As for the experimental part: This experiment was carried out to screen for molecules that are modulated by exposure of mouse spleen cells to the CB2 receptor agonist (FIG. 6). The experiment used a commercial microarray (Qiagen) that tests the levels of 89 different mRNAs. Spleen cells were placed in culture to carry out a standard Mixed Lymphocyte Reaction (MLR) assay. Experimental wells received 32 μM/ml of the selective CB2 receptor agonist, O-1966, and control wells received vehicle (0.4% ethanol). […] The decrease in CD40L and Cyclin D3 mRNA was significant because CD40L is an activation molecule for T-cells, and Cyclin D3 is a molecule involved in cell division. T-cell activation and division are decreased after exposure to the selective CB2 receptor agonist.
Background: Quantitative PCR measures a nucleic acid by following its amplification.

The next data set deals with Tregs. In words: Tregs (Foxp3+ CD4+) in the MLR by flow cytometry. It is filed as cell-based, mouse. The conditions noted are these: 48 hours. As for the experimental part: An MLR assay was performed in which experimental wells received 32 μM/ml of O-1966 and control wells received vehicle (FIG. 8). At 48 hours, cells were harvested and stained for expression of Foxp3 and CD4 (Cells that are double positive for these two markers are considered Tregs). Cells were analyzed for marker expression by flow cytometry. Wells that received no treatment had 2.1%+/−0.14 Tregs compared to wells that were treated with 32 μM O-1966 which had 4.3%+/−0.27 Tregs. These differences were statistically significant, as 20,000 cells were counted in each group. Tregs are a relatively newly recognized subset of T-cells that suppress T-cell immune responses. Thus, an increase their number induced by the CB2 receptor agonist provides a second mechanism by which the cannabinoid is altering T-cell responsiveness in the MLR assay.
An MLR was performed in which some wells received 1.6 μg/ml of anti-IL-10 antibody (FIG. 10). Cells were harvested at 48 hours and stained as described under #3 above for Tregs. Cells that received 32 μM O-1966 and no anti-IL-10 antibody had 4.3%+/−0.28 Tregs. Wells that received only anti-IL-10 antibody and no O-1966, had 1.7%+/−0.16 Tregs. Wells that received anti-IL-10 antibody in addition to 32 μM O-1966 had 2.9%+/−0.25 Tregs.

In data set [6] the test system is IL-2 release from splenocytes from CB2R-/- KO mice. The data set is described as follows: IL-2 release in MLR supernatants by ELISA, CB2R-/- KO splenocytes. The conditions noted are these: supernatants at 24 hours.
The next data set relates to splenic Tregs. In words: Splenic Tregs of treated skin graft recipient mice by flow cytometry. In kind it is in vivo, mouse. As for the experimental part: O-1966 treated mice that received skin grafts have an increased percentage of splenic Tregs. (FIGS. 13 and 14): Spleen cells taken from the animals described in C1 above were harvested from animals, and a sample was immediately analyzed by flow cytometry. Another sample was placed in culture for 48 hours. […] Cells that were harvested after 48 hours in the MLR had 4.75% Tregs in the vehicle treated mice and 9.7% Tregs in the O-1966 treated mice.
(In general: Flow cytometry measures light scatter and fluorescence of single cells or particles in a stream.)

In the next data set the test system is MLR culture cells. The data set is described as follows: Cell viability in MLR cultures by flow cytometry (LIVE/DEAD stain). It is filed as cell-based, mouse. The conditions noted are these: parallel MLR cultures. The procedure: Lastly, cultures were run in parallel with each experimental MLR and tested by flow cytometry to assess viability using LIVE/DEAD® Fixable Dead Cell Stain Kit (Molecular Probes, Inc.; Eugene, Oreg.). Cells (1×10^6) from the culture were resuspended in 1 ml FCM Staining Buffer and incubated for 30 min at room temperature with 1 μl dead cell stain. Cells were washed twice and resuspended in FCM staining buffer and analyzed using an LSRII (BD Biosciences) flow cytometer, and the data were analyzed using FACSDiva™ software (BD Biosciences).

In a further data set the test system is IL-10 release in the MLR. The data set is described as follows: IL-10 release in the MLR. The note with it: 32 μM, supernatants after 24 hours. It is filed as cell-based, mouse. The procedure: An MLR assay was performed in which experimental wells received 32 μM/ml of O-1966 and control wells received vehicle (FIGS. 7 and 9). Supernatants were collected after 24 hours. […] IL-10 is an immunosuppressive cytokine, so its rise induced by the CB2 receptor agonist provides a mechanism of action for the cannabinoid in suppressing the MLR. In a separate MLR some wells received 1.6 μg/ml of anti-IL-10 antibody. Wells that received no antibody and 32 μM 0-1966 had 90% suppression of proliferation compared to untreated cells. Cells that were treated with anti-IL-10 antibody and 32 μM O-1966 had 43% suppression of proliferation compared to wells that received anti-IL-10 antibody only.

Data set [7] has as its system C57BL/6 responder splenocytes from WT mice. The note with it: added to unfractionated murine spleen cells; previously shown by the inventors; cited from earlier work.

Consider `CCCCC/C=C\C/C=C\C/C=C\C/C=C\CCCC(=O)NCCO` [anandamide, arachidonoylethanolamide], for which the “Immunosuppression in plaque-formation cell assays” value in the data set with mouse splenocytes is on record as “induce dose-related immunosuppression”.

Take `CCCn1c(C)c(C(=O)c2cccc3ccccc23)c2ccccc21` [JWH-015, reference compound]: in data set [1], the “Inhibition of the MLR” value was “markedly inhibited the MLR”.

Take `CCCCCCC(C)(C)c1cc(OC)c(C2(O)CCCC(C)C2)c(OC)c1` (centres unmarked) [O-1966, 1-{4-(1,1-Dimeyhyl-heptyl)-2,6-dimethoxy-phenyl}-3-methyl-cyclohexanol]: in data set [2], the “Average spleen weight index ([spleen weight/body weight]×100)” value is given as 0.38% and the Spleen weight is 0.077+/−0.006 grams. The “Viable grafts longer than vehicle treated mice” value in data set [3] is 2.7 days. Moreover, the “Decreased proliferation in ex vivo MLR compared to vehicle treated mice” value in data set [4] stood at 50%. Further, the “SI values, CD3+ treated versus CD11b+ treated fractions” value in data set [5] is “selectively reduced the SI values for cultures in which the CD3^+ cells were treated”. Further, in the data set on CD3+ T-cell population, the “CD40L mRNA expression” value is given as −4.60 fold, the “Cyclin D3 mRNA expression” value is given as −4.10 fold, the “IL-10 mRNA expression” value is on record as 4.74 fold and the “Sla2 mRNA expression” value was found to be 4.75 fold. Further, the “Socs5 mRNA expression” value with CD3+ T-cell population was determined as 4.37 fold. Moreover, in data set [1] (32 μM plus 1.6 μg/ml anti-IL-10 antibody, compared to antibody only), the Suppression of proliferation is 43%. Moreover, the Suppression of proliferation in [1] (32 μM, no antibody, compared to untreated cells) turned out to be 90%. Further, in data set [1], the “Inhibition of the MLR” value is “markedly inhibited the MLR”. The “Tregs (Foxp3+ CD4+)” value in the data set with Tregs (32 μM O-1966 plus 1.6 μg/ml anti-IL-10 antibody) came out at 2.9%+/−0.25. Also, the “Tregs (Foxp3+ CD4+)” value with Tregs (32 μM, no anti-IL-10 antibody) is 4.3%+/−0.27 and 4.3%+/−0.28. In addition, in [6], the “Inhibition of IL-2 release” value is given as “without effect”. The “Tregs (CD4+, Foxp3+) of the CD4 cells” value with splenic Tregs (analyzed immediately after sacrifice, day 14, 5 mg/kg) turned out to be 32.2%. Besides, the “Tregs after 48 hours in the MLR” value with splenic Tregs (ex vivo MLR 48 hours, 5 mg/kg in vivo) is recorded as 9.7%. In addition, the “Effect on cell death (live versus dead cells)” value with MLR culture cells is on record as “did not affect cell death”. Moreover, in the data set on IL-10 release in the MLR, the “IL-10 release in the MLR” value stood at 96.75 pg/mL and the “Increase of IL-10 release in the MLR” value was found to be 2.46 fold.

As for SR144528 [reference compound], the “Block of suppression of the MLR by JWH-015 and O-1966” value in [1] (antagonist 32-320 μM added 2 h before agonist (16 and 32 μM)) is on record as “blocked suppression”.

In the case of `CCCCCc1cc(O)c2c(c1)OC(C)(C)[C@@H]1CCC(C)=C[C@@H]21` [THC (Marinol), Δ^9-tetrahydrocannabinol], the “Inhibition of the MLR” value in data set [7] was “inhibit the MLR”. The “Immunosuppression in plaque-formation cell assays” value with mouse splenocytes is on record as “induce dose-related immunosuppression”.
